The values below come from US5053215A, “NMR-assayable ligand-labelled trifluorothymidine containing composition and method for diagnosis of HSV infection” (priority 1988, dated 1991).

Data set [1] can be described thus: CCl4 induced hepatitis: Alanine Amino Transferase (ALT), Blood Urea Nitrogen (BUN) and histology. Format: in vivo, CBA/J mice. The method, then:
Preliminary experiments were then carried out to determine the average ALT levels of HSV-2 infected mice on day 3 at the time higher levels of TFT were found in the liver. […] A dose response curve of CCl4 hepatitis had shown that between 0.015-0.02 ml/kg CCl4 would lead to ALT levels of 500-5000 IU/ml blood. […]

In another data set the test system is HSV infected cells. The conditions noted are these: in vitro, cited from earlier work; for Degradation of phosphorylated drug back to parent compound: HSV infected cells, Smee et al.
Data set [2] concerns optic nerve and chiasm of rats after intraocular inoculation of HSV-1. The settings on record: rat, in vivo; cited from earlier work.
The test system of data set [3] is murine hepatitis virus (MHV-A59). Further details: species or system CBA/J mice; MHV-A59. The conditions noted are these: mouse, in vivo. An excerpt: Symbols used: =HSV-2; O=MHV-A 59; Δ=uninfected.
Data set [4] can be described thus: TFT blood levels after i.v. injection. It is filed as in vivo, CBA/J mice. The method, then: (§1) Carbon tetrachloride was dissolved in olive oil for injection. Trifluorothymidine was assayed by high pressure liquid chromatography (HPLC).
The conditions of data set [5]: in vivo; cited from earlier work.
A short description of data set [6]: TFT (19F) concentration in mouse livers by 19F NMR spectroscopy after i.v. injection. Further details: species or system CBA/J mice; HSV-2 (333 strain). The conditions noted are these: in vivo, iv, 100 mg/kg, TFT concentration in liver homogenate by 19F NMR (FIG. 3B). As for the experimental part:
(§2) ^19 F assay was carried out in a Nicolet-GE NT-300 NMR spectrometer, using standard techniques with a simple one-pulse sequence. The field was 7.05 Tesla (T) and the frequency was 282 megahertz. Depending upon the volume of the sample available, it was placed :n either a 5 mm or 12 mm diameter tube, which was usually not spun. Both whole liver and liver homogenates were placed in 2 ml of a 2:1 v/v mixture of D2 O: methanol which inactivated HSV, permitted field homogeneity to be optimized and provided field-frequency lock for time averaging. A five-second cycle time was used with a tip angle of 60°. Sweep width was 5000 Hz and 64K data points were collected. Concentration of ^19 F in a sample was evaluated by comparing the electronically integrated area of the resonance peak, after application of 10 Hz line broadening and Fourier transformation of the free induction delays using a 1280 computer, to that of standards containing 10, 50, or 100 μg/ml TFT Instrumental reproducibility of the calculated areas was checked by comparing the integral for the […] standard to that calculated from a scale setting obtained with a 100 μg/ml standard. […]
(§3) In FIG. 3, representative ^19 F NMR spectra was measured with the Nicolet GE NT-300 NMR spectrometer at a field strength of 7.05 T, using a 2:1 v/v D2 O/methanol mixture as a field-frequency lock. […]

Data set [7] has as its system livers of mice infected with HSV-2. The data set is described as above. Also noted: species or system CBA/J mice; HSV-2 (333 strain). The settings on record: in vivo, iv, 100 mg/kg, 3.5 h. The method, then:
as §2, §3

In a further data set the test system is HSV TK. The settings on record: cited from earlier work.
The nature of the next data set: in vivo. The settings on record: mouse, in vivo, iv. The method, then:
(§4) For comparison, TFT levels were measured in the livers of uninfected mice and mice with carbon tetrachloride (CCl4) induced hepatitis.
(§5) HSV-2 (333 strain) was grown and titered in Vero cells as previously described [Rand -t al, J. Med. Virol., Vol. 20, pp. 1-8 (1986).
(§6) The following strains of mice were obtained from the National Cancer Institute: Balb/c, CBA/J, A/HeN, A/J, P/N, and DBA/2N.
as §1
(§7) 4-6 week old, 18-23 gm, CBA/J mice were injected intraperitoneally (i.p.) with 1.5 ml of HSV-2 (2-4×10^6 pfu/ml). […] Three days after infection, mice were anesthetized with a 3:1 mixture of 100 mg/ml ketamine HCl:20 mg/ml Xylazine at a dose of 0.2 ml/kg. The jugular vein was surgically exposed, and mice were injected intravenously with 100 or 160 mg/kg of TFT in the appropriate volume of a 20 mg/ml solution in Phosphate Buffered Saline (PBS) pH 7.4. Mice were sacrificed at 45 minutes, 2 hours, 2.5 and 3.5 hours after I.V. injection of TFT. The livers were immediately excised and frozen at -70° C. until they could be studied. For viral titration and measurement of TFT, 1.5 ml of phosphate buffered saline pH 7.4 was mixed with 1 g of liver and the mixture homogenized (10 strokes using a Pyrex Ten Broeck tissue grinder), followed by sonication ×4 for 30 sec. in a Fisher 300 sonic dismembrator at a relative output of 0 55; 0.8 ml of the liver homogenate was mixed with an equal volume of methanol, vortexed extensively and then centrifuged at 15,000×g for 15 minutes. The supernatant was analyzed by HPLC for TFT and the results expressed per gram of liver after correction for dilution. Prior to sonication, 0.5 ml of the liver homogenate was serially diluted in serum free tissue culture media and titrated in triplicate in Vero cells as previously described [Rand et al, supra]. In some experiments the clarified supernatant that had been mixed with methanol as described above was placed in a 5 mm NMR tube and ^19 F content measured by NMR spectroscopy. In other experiments the entire liver was excised, and placed in a 12 mm NMR tube and the ^19 F directly analyzed by NMR spectroscopy.
(§8) Prior to i.p. injection of CCl4 in olive oil, 0.2 ml of blood was collected from each of a group of 5 mice. Twenty-four hours after i.p. injection of 0.1 ml/kg CCl4 in olive oil, blood was collected again, and both sets were analyzed for Alanine Amino Transferase (ALT) and Blood Urea Nitrogen (BUN). For ALT, 2 μl serum was analyzed in duplicate with a Technicon RA 1000 and for BUN 10 μl duplicate samples were analyzed with a Beckman Astra 8. Mice were sacrificed by cervical dislocation and the liver and kidney fixed in 10% formalin, stained with hematoxylin and eosin and examined histologically.
(§9) Therefore, data were analyzed by the non-parametric Mann-Whitney U test.
(§10) In FIG. 1, 1 HSV-2 infected, uninfected and CCl4 treated 4-6 week old CBA/J mice were injected via the jugular vein with 100 mg/kg TFT, and sacrificed at 45 minutes, 2 hours or 3.5 hours later. […] Most of the experiments were done on day 3 after HSV infection; day 2 after infection was not systematically studied, and is presented only for comparison.
(§11) In FIG. 2, the relationship between HSV-2 titer/g liver and TFT concentration/g liver measured by HPLC on day 3 after HSV-2 infection, 2 h (O's) and 2.5 h ( 's) following i.v. administration of TFT. Two separate experiments are shown. Data were analyzed by linear regression.

For data set [8], the system named is livers of mice infected with HSV-2. Put plainly: TFT concentration in livers of HSV-2 infected mice (with uninfected and CCl4 hepatitis controls) by HPLC after i.v. injection. As for the experimental part:
as §4, §5, §6, §1, §7, §8, §9, §10, §11

The subject of another data set is HSV infected tissues. The settings on record: cited from earlier work.
Setting [9] is: mouse, in vivo, iv, 160 mg/kg, 2 h.

Entries after “also recorded” stand apart in the source; their conditions may differ.

Regarding `ClC(Cl)(Cl)Cl` [CCl4, carbon tetrachloride], the “ALT levels in blood after CCl4 (0.015-0.02 ml/kg), dose response curve” value in [1] (0.015-0.02 ml/kg CCl4) is 500-5000 IU/ml blood. Also, in [1] (0.2 ml/kg i.p.), the “Renal function (BUN) after CCl4” value was “no significant alternation in renal function”. Moreover, in data set [1] (0.2 ml/kg in olive oil i.p., a day later, typical range), the “ALT levels in blood after CCl4 (0.2 ml/kg)” value is reported as 20,000-30,000 IU/ml. Further, the “Hepatic necrosis after CCl4” value in [1] (0.2 ml/kg in olive oil i.p., a day later / histology) is given as “overwhelming hepatic necrosis; also recorded: massive”. In data set [1] (24 h post treatment, 0.02 ml/kg, N = 12, after receiving 100 mg/kg TFT, Mean ± SD), the “ALT after CCl4 (0.02 ml/kg)” value is on record as 18950 ± 7526 IU/L. In addition, the “BUN after CCl4” value in data set [1] (24 h post treatment, 0.2 ml/kg i.p., N = 5, Mean ± SD, pre treatment 10.4 + 2.7) amounted to 6.4 ± 2.3 mg/dL. In data set [1] (24 h post treatment, 0.2 ml/kg i.p., N = 5, Mean ± SD, pre treatment 28.2 ± 13.8), the “ALT after CCl4 (0.2 ml/kg)” value worked out at 28112 ± 6086 IU/L. In addition, the “Hepatic necrosis after low dose CCl4, histology” value in data set [1] (dose printed as 0.0 ml/kg) was “more localized and less extensive”.
`Nc1nc2c(ncn2COCCO)c(=O)[nH]1` [DHPG, 9-(2-Hydroxyethyoxymethyl) guanine]: in the data set on HSV infected cells, the “Degradation of phosphorylated drug back to parent compound” value is given as “did not hydrolyze back to the parent compound as readily” and the “Intracellular accumulation in HSV infected cells” value (shortened to “Intracellular accumulation”) was “intracellular accumulation; also recorded: accumulated in a similar manner”.
On to `Cc1cn([C@@H]2O[C@H](CO)[C@@H](O)[C@@H]2F)c(=O)[nH]c1=O` [FMAU, 2' fluoro-5-methyl-1-β-D-arabinosyluracil], for which, in data set [2], the “Accumulation of FMAU in choroid plexus and cells lining the ventricular walls” value is recorded as “non-specific accumulation”; the “Concentration of FMAU in optic nerve and chiasm” value was “specific concentration of the drug in the optic nerve and chiasm”.
For the compound `O=c1[nH]c(=O)n([C@H]2C[C@H](O)[C@@H](CO)O2)cc1C(F)(F)F` [TFT, trifluorothymidine], the “TFT level vs MHV titer” value in [3] was “No relationship between MHV titer and TFT level”. Further, the “Blood levels of TFT at 45 minutes, difference among groups” value in data set [4] (100 mg/kg i.v., HSV-2 infected, uninfected, CCl4 treated) is given as “essentially no difference in blood levels”. In addition, the “Blood levels of TFT at 2 hours” value in [4] (i.v. injection, 2 hours, any of the groups) is given as “no detectable drug at 2 hours in the blood; also recorded: no measurable blood levels”. For the same compound, the “Blood brain barrier crossing” value in [5] is “crosses the blood brain barrier poorly”. Further, the concentration at 3.5 h in data set [6] was found to be 11000 ng/g. Further, the “TFT concentration in liver homogenate by 19F NMR (FIG. 3B)” value in data set [7] is 11 μg/g liver. Also, in the data set with HSV infected cells, the “Intracellular accumulation” value was “intracellular accumulation; also recorded: accumulate in tissue culture”. Also, the “Phosphorylation by HSV TK” value in the data set on HSV TK is recorded as “phosphorylated by the HSV TK”. Besides, the concentration at 2 h in “in vivo” (100 mg/kg, TFT concentration in liver by HPLC, CCl4 hepatitis) is under 1000 ng/g; in “in vivo” (160 mg/kg, Mean conc. of TFT in liver, infected mice), 110000 ng/g; in the data set “in vivo” (160 mg/kg, Mean conc. of TFT in liver, uninfected mice), 14700 ng/g. Also, the “TFT levels in livers of HSV-2 infected mice, positive control in MHV experiment” value in data set [8] (2 HSV-2 infected mice with titers of 10^6 pfu HSV/g liver (FIG. 4)) is “high levels of TFT in liver; also recorded: strikingly elevated levels”. Besides, the “Accumulation of TFT in liver after i.p. injection” value in data set [8] (i.p. injection, HSV infected mice) is given as “impossible to demonstrate accumulation of TFT in the liver”. Also, the “TFT levels in livers of HSV-2 infected mice vs uninfected or CCl4 treated mice” value in data set [8] (i.v. injection of TFT, 2 and 3.5 hours in FIG. 1 (100 mg/kg), 100 mg/kg) is “significantly higher levels of TFT in their livers at both 2 and 3.5 hours; also recorded: highly elevated levels of TFT”. Moreover, the “Mean conc. of TFT in liver, infected mice” value in [8] (setting [9]) came out at 110.1 μg/g liver. The “Mean conc. of TFT in liver, uninfected mice” value in data set [8] (setting [9]) worked out at 14.7 μg/g liver. In data set [8] (viral titers low (10^3 /g liver)), the “TFT levels in liver on day 2 after HSV-2 infection” value is recorded as “higher levels of TFT could be found in the livers of HSV-2 infected mice on day 2 as well as day 3”.
On to `Nc1nc2c(ncn2COCCO)c(=O)[nH]1` [acyclovir], for which, in the data set with HSV infected cells, the “Degradation of phosphorylated drug back to parent compound” value was “rapidly degraded back to acyclovir, and diffused out of the cell”; the “Intracellular accumulation” value is recorded as “intracellular accumulation; also recorded: accumulate in tissue culture; also recorded: accumulated in the form of phosphorylated intermediates”. The “Selective accumulation of acyclovir in HSV infected tissues in vivo” value with HSV infected tissues (Price et al) was “unable to demonstrate any selective accumulation”. Besides, the “Duration of elevated plasma levels of acyclovir” value in the data set on HSV infected tissues (s.c. injection, Biron et al, "remained reasonably elevated") is at least 2 h. Moreover, in the data set with HSV TK, the “Phosphorylation by HSV TK” value was “phosphorylated by the HSV TK”.
